From patent US8815909B2, “Diaminocyclohexane compounds and uses thereof” (Bristol-Myers Squibb Company, priority 2011, dated 2014)

biological target: T1, human Y4 receptor (Homo sapiens, UniProt P50391); test: NPY4 cAMP HTRF Agonist Assay (inhibitory cAMP assay, Gi activation by Y4 agonism); assay type: cell-based; conditions: TABLE 2, R2 is Phenyl-CN; read-out: hY4 CAMP EC50
T1 construct: expressed in transfected cells
Procedure, shortened: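 CHO cells stably expressing human Y4, 5000/well, exposed to compound with forskolin and IBMX in PBS for 30 min at room temperature. Gi-mediated inhibition of cAMP then measured by HTRF after 1 h with d2-conjugate and anti-cAMP cryptate.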

T1 sequence (P50391 whole entry): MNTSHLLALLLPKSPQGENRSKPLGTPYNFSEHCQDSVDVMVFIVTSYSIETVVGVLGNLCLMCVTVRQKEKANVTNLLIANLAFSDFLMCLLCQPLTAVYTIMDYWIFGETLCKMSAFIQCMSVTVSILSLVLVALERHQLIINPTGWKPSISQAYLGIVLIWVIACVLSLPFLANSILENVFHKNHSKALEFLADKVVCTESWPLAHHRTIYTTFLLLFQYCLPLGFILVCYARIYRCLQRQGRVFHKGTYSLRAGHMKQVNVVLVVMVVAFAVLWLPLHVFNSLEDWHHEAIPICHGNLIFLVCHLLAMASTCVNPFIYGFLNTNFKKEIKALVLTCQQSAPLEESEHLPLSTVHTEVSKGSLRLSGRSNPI

EC50	Compound
152 nM	N#Cc1ccc(N2CCC[C@H](N[C@@H]3CCCC[C@H]3Nc3cc4ccccc4cn3)C2)cc1 [Example 281]
87 nM	COc1cccc(-c2ccnc(N[C@@H]3CCCC[C@H]3N[C@H]3CCCN(c4ccc(C#N)cc4)C3)c2)c1 [Example 263]

same assay, conditions: TABLE 4, R2 is Pyridinyl-CN; read-out: hY4 CAMP EC50

EC50	Compound
1210 nM	N#Cc1ccc(N2C[C@@H]3C[C@H](N[C@@H]4CCCC[C@H]4Nc4cc(-c5cccc(C(N)=O)c5)ccn4)[C@H]2C3)cn1 [Example 302]

same assay, conditions: TABLE 5, R2 is Pyridinyl-CF3; read-out: hY4 CAMP EC50

EC50	Compound
2 nM	C[C@]1(N[C@@H]2CCCC[C@H]2Nc2ncc(-c3cccc(C(N)=O)c3)o2)CCCN(c2ccc(C(F)(F)F)nc2)C1 [Example 322]
166 nM	COC(=O)c1cccc(-c2cnc(N[C@@H]3CCCC[C@H]3N[C@H]3CCCN(c4ccc(C(F)(F)F)cn4)C3)o2)c1 [Example 330]

same assay, conditions: human Y4 receptor, cAMP; read-out: hY4 CAMP EC50

Compound	EC50
Cn1nnc(-c2ccc(N3CCC[C@H](N[C@@H]4CCCC[C@H]4Nc4ncc(-c5ccc(OC(F)(F)F)cc5)o4)C3)cc2)n1 [Example 499]	1.4 nM
C[C@]1(N[C@@H]2CCCC[C@H]2Nc2cc(-c3cccc(C(N)=O)c3)ccn2)CCCN(c2ncc(C(F)(F)F)cn2)C1 [Example 400]	28 nM
CNC(=O)c1cccc(-c2cnc(N[C@@H]3CCCC[C@H]3N[C@H]3CCCN(c4ccc5ncnn5c4)C3)o2)c1 [Example 485]	58 nM
COc1ncccc1-c1ccnc(N[C@@H]2CCCC[C@H]2NC2CCCN(c3ccc(-c4nnc(C)o4)cc3)C2)c1 (stereo partly shown) [Example 372]	59 nM
COC(=O)Nc1cccc(-c2cnc(N[C@@H]3CCCC[C@H]3N[C@H]3CCCN(c4cnc(-c5noc(C)n5)nc4)C3)o2)c1 [Example 466]	1 nM
N#Cc1cc(N2C[C@@H]3C[C@H](N[C@@H]4CCCC[C@H]4Nc4ncc(-c5ccc(OC(F)(F)F)cc5)o4)[C@H]2C3)ncn1 [Example 444]	378 nM
Cn1nnc(-c2ccc(N3CCC[C@H](N[C@@H]4CCCC[C@H]4Nc4cc(-c5cccc(NS(C)(=O)=O)c5)ccn4)C3)cc2)n1 [Example 507]	6 nM
Cc1nnc(-c2ccc(N3CCCC(N[C@@H]4CCCC[C@H]4Nc4cc(-c5ccc(Cl)cc5)ccn4)C3)cc2)o1 (stereo partly shown) [Example 365]	52 nM
CC(C)OC(=O)Nc1cccc(-c2cnc(N[C@@H]3CCCC[C@H]3N[C@H]3CCCN(c4cnc(C(F)(F)F)nc4)C3)o2)c1 [Example 421]	23 nM
N#Cc1ncc(N2C[C@@H]3C[C@H](N[C@@H]4CCCC[C@H]4Nc4ncc(-c5cccc(C(N)=O)c5)o4)[C@H]2C3)cn1 [Example 434]	129 nM

The remaining lines, values ahead:

EC50	Compound
2 nM	Cc1noc(-c2ccc(N3CCC[C@H](N[C@@H]4CCCC[C@H]4Nc4cc(-c5cccc(C(N)=O)c5)ccn4)C3)cc2)n1 [Example 374]
775 nM	N#Cc1cnc(N2CCC[C@H](N[C@@H]3CCCC[C@H]3Nc3cc(-c4cccc(C(N)=O)c4)ccn3)C2)cn1 [Example 477]

same assay, conditions: human Y4 stable CHO clonal cells, forskolin + IBMX; read-out: NPY4 cAMP HTRF Agonist Assay EC50

EC50	Compound
45 nM	N#Cc1ccc(N2CCC[C@H](N[C@@H]3CCCC[C@H]3Nc3ncc(-c4ccccc4)s3)C2)cc1 [Example 42, 4-((S)-3-((1R,2R)-2-(5-Phenylthiazol-2-ylamino)cyclohexylamino)piperidin-1-yl)benzonitrile]
91 nM	N#Cc1cnc(N[C@@H]2CCCC[C@H]2N[C@H]2CCCN(c3ccc(C(F)(F)F)cc3)C2)o1 [Example 113, 2-(((1R,2R)-2-(((S)-1-(4-(trifluoromethyl)phenyl)piperidin-3-yl)amino)cyclohexyl)amino)oxazole-5-carbonitrile]
515 nM	N#Cc1ccc(N2CCC[C@H](N[C@@H]3CCCC[C@H]3Nc3cc(/C=C\C(N)=O)ccn3)C2)cc1 [Example 110, (Z)-3-(2-(((1R,2R)-2-(((S)-1-(4-cyanophenyl)piperidin-3-yl)amino)cyclohexyl)amino)pyridin-4-yl)acrylamide]
58 nM	FC(F)(F)Oc1ccc(-c2cnc(N[C@@H]3CCCC[C@H]3N[C@H]3CCCN(c4ccc(-n5cncn5)cc4)C3)o2)cc1 [Example 89, (1R,2R)—N1-((S)-1-(4-(1H-1,2,4-Triazol-1-yl)phenyl)piperidin-3-yl)-N2-(5-(4-(trifluoromethoxy)phenyl)oxazol-2-yl)cyclohexane-1,2-diamine bis-trifluoroacetate]

same assay, conditions: second TABLE 1, R2 is Phenyl-CF3; read-out: hY4 CAMP EC50

EC50	Compound
239 nM	CN(C)c1cccc(-c2ccnc(N[C@@H]3CCCC[C@H]3N[C@H]3CCCN(c4ccc(C(F)(F)F)cc4)C3)c2)c1 [Example 159]
29 nM	CCCNC(=O)c1cccc(-c2ccnc(N[C@@H]3CCCC[C@H]3N[C@H]3CCCN(c4ccc(C(F)(F)F)cc4)C3)c2)c1 [Example 139]
42 nM	OCCCCc1ccnc(N[C@@H]2CCCC[C@H]2N[C@H]2CCCN(c3ccc(C(F)(F)F)cc3)C2)c1 [Example 187]
508 nM	OCCc1ccc(-c2ccnc(N[C@@H]3CCCC[C@H]3N[C@H]3CCCN(c4ccc(C(F)(F)F)cc4)C3)c2)cc1 [Example 152]
